Tests used:
THP-1 cells = experiment: LPS-Stimulation of THP-1 Cells, TNF-α release; type: cell-based; settings: Homo sapiens, LPS 1 μg/ml, 6 hrs, read-out: Inhibitor activity versus THP-1 TNFα release
Procedure: LPS-Stimulation of THP-1 Cells
THP-1 cells were plated in 100 μl at a density of 4×10^4 cells/well in V-bottomed 96 well tissue culture treated plates and incubated at 37° C. in 5% CO2 for 16 hrs. 2 hrs after the addition of the inhibitor in 100 μl of tissue culture media, the cells were stimulated with LPS (E. coli strain 005:85, Sigma) at a final concentration of 1 μg/ml and incubated at 37° C. in 5% CO2 for 6 hrs. TNF-α levels were measured from cell-free supernatants by sandwich ELISA (R&D Systems #QTA00B)

IKBKB (IKKβ) = biological target: T1, IKBKB (IKKβ) (Homo sapiens, UniProt O14920); experiment: IKKβ Enzyme Assay (Z'-LYTE, Invitrogen); type: biochemical; settings: ATP at or close to Km; read-out: Inhibitor activity versus IKKβ
T1 construct: purchased Invitrogen (Paisley, UK)
T1 sequence (O14920 1-756): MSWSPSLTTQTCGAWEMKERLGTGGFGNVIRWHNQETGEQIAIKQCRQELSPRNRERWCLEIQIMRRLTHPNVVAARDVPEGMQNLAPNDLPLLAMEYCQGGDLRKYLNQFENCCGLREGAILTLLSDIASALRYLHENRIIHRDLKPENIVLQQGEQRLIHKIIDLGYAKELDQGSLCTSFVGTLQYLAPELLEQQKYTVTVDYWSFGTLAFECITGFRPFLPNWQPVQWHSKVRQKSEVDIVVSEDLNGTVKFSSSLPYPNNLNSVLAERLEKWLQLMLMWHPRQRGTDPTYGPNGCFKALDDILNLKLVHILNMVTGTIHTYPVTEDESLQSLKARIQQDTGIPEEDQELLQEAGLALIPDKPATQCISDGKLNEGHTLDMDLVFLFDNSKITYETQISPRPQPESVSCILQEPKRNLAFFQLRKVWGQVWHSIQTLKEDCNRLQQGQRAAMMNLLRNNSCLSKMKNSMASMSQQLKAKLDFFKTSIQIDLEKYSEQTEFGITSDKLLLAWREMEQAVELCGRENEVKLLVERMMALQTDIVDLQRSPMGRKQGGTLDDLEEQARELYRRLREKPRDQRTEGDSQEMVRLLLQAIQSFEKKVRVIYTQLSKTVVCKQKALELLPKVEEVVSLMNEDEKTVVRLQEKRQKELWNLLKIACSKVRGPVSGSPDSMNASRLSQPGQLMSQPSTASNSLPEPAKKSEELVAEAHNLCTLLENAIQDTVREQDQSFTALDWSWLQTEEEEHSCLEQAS
Procedure: The ability of compounds to inhibit IKKβ kinase activity was measured in an assay performed by Invitrogen (Paisley, UK). The Z′-LYTE™ biochemical assay employs a fluorescence-based, coupled-enzyme format and is based on the differential sensitivity of phosphorylated and non-phosphorylated peptides to proteolytic cleavage. The peptide substrate is labelled with two fluorophores—one at each end—that make up a FRET pair. In the primary reaction, the kinase transfers the gamma-phosphate of ATP to a single serine or threonine residue in a synthetic FRET-peptide. In the secondary reaction, a site-specific protease recognizes and cleaves non-phosphorylated FRET-peptides. Phosphorylation of FRET-peptides suppresses cleavage by the Development Reagent. Cleavage disrupts FRET between the donor (i.e., coumarin) and acceptor (i.e. fluorescein) fluorophores on the FRET-peptide, whereas uncleaved, phosphorylated FRET-peptides maintain FRET. A […] method, which calculates the ratio (the Emission Ratio) of donor emission to acceptor emission after excitation of the donor fluorophore at 400 nm, is used to quantitate reaction progress.
The final 10 μL Kinase Reaction consists of 0.9-8.0 ng IKBKB (IKKβ), 2 μM Ser/Thr 05 Peptide and ATP in 50 mM HEPES pH 7.5, 0.01% BRIJ-35, 10 mM MgCl2, 1 mM EGTA. The assay is performed at an ATP concentration at, or close to the Km. After the 60 minute Kinase Reaction incubation at room temperature, 5 μL of a 1:128 dilution of Development Reagent is added. The assay plate is incubated for a further 60 minutes at room temperature and read on a fluorescence plate reader.
Duplicate data points are generated from a ⅓ log dilution series of a stock solution of test compound in DMSO. Nine dilutions steps are made from a top concentration of 10 μM, and a ‘no compound’ blank is included. Data is collected and analysed using XLfit software from IDBS. The dose response curve is curve fitted to model number 205 (sigmoidal dose-response model). From the curve generated, the concentration giving 50% inhibition is determined and reported.

Row | Structure (SMILES) | IC50 (THP-1 cells) | IC50 (IKBKB (IKKβ))
1 | CC(C)C[C@H](NCCCOc1ccc(-c2cc(C(N)=O)c(NC(N)=O)s2)cc1)C(=O)OC1CCCC1 [Example 25, Cyclopentyl N-(3-{4-[4-carbamoyl-5-(carbamoylamino)-2-thienyl]phenoxy}propyl)-L-leucinate] | 1000 to 5000 nM | 1000 to 5000 nM
2 | NC(=O)Nc1sc(-c2ccc(CN[C@@H](Cc3ccccc3)C(=O)OC3CCCC3)cc2)cc1C(N)=O [Example 3, Cyclopentyl N-{-4-[4-carbamoyl-5-(carbamoylamino)-2-thienyl]benzyl}-L-phenylalaninate] | > 5000 nM | > 5000 nM
3 | CC(C)C[C@H](NCCCCCOc1ccc(-c2cc(C(N)=O)c(NC(N)=O)s2)cc1)C(=O)OC1CCCC1 [Example 27, Cyclopentyl N-(5-{4-[4-carbamoyl-5-(carbamoylamino)-2-thienyl]phenoxy}pentyl)-L-leucinate] | 1000 to 5000 nM | < 1000 nM
4 | Cc1cc(-c2cc(C(N)=O)c(NC(N)=O)s2)ccc1/C=C/CN[C@@H](CC(C)C)C(=O)OC1CCCC1 [Example 30, Cyclopentyl N-[(2E)-3-{4-[4-carbamoyl-5-(carbamoylamino)thiophen-2-yl]-2-methylphenyl}prop-2-en-1-yl]-L-leucinate] | 1000 to 5000 nM | 1000 to 5000 nM
5 | CC(C)C[C@H](NC/C=C/c1cc(F)c(-c2cc(C(N)=O)c(NC(N)=O)s2)cc1F)C(=O)OC1CCCC1 [Example 37, Cyclopentyl N-[(2E)-3-{4-[4-carbamoyl-5-(carbamoylamino)thiophen-2-yl]-2,5-difluorophenyl}prop-2-en-1-yl]-L-leucinate] | 1000 to 5000 nM | 1000 to 5000 nM
6 | CC(C)C[C@H](NCCc1ccc(-c2cc(C(N)=O)c(NC(N)=O)s2)cc1)C(=O)OC1CCCC1 [Example 16, Cyclopentyl N-(2-{4-[4-carbamoyl-5-(carbamoylamino)-2-thienyl]phenyl}ethyl)-L-leucinate] | 1000 to 5000 nM | 1000 to 5000 nM
7 | CC(C)C[C@H](NCCCOc1ccc(-c2cc(C(N)=O)c(NC(N)=O)s2)c(Cl)c1)C(=O)OC1CCCC1 [Example 26, Cyclopentyl N-(3-{4-[4-carbamoyl-5-(carbamoylamino)-2-thienyl]-3-chlorophenoxy}propyl)-L-leucinate] | 1000 to 5000 nM | 1000 to 5000 nM
8 | CC(C)C[C@H](NC/C=C/c1ccc(-c2cc(C(N)=O)c(NC(N)=O)s2)cc1C(F)(F)F)C(=O)OC1CCCC1 [Example 36, Cyclopentyl N-[(2E)-3-{4-[4-carbamoyl-5-(carbamoylamino)thiophen-2-yl]-2-(trifluoromethyl)phenyl}prop-2-en-1-yl]-L-leucinate] | > 5000 nM | 1000 to 5000 nM
9 | CC(C)C[C@H](NCc1ccc(-c2cc(C(N)=O)c(NC(N)=O)s2)c(Cl)c1)C(=O)OC1CCCC1 [Example 6, Cyclopentyl N-{-4-[4-carbamoyl-5-(carbamoylamino)-2-thienyl]-3-chlorobenzyl}-L-leucinate] | > 5000 nM | < 1000 nM
10 | CC(C)C[C@H](NCCc1ccc(-c2cc(C(N)=O)c(NC(N)=O)s2)c(Cl)c1)C(=O)OC1CCCC1 [Example 17, Cyclopentyl N-(2-{4-[4-carbamoyl-5-(carbamoylamino)-2-thienyl]-3-chlorophenyl}ethyl)-L-leucinate] | > 5000 nM | 1000 to 5000 nM
11 | Cc1cc(-c2cc(C(N)=O)c(NC(N)=O)s2)ccc1CN[C@@H](CC(C)C)C(=O)OC1CCCC1 [Example 7, Cyclopentyl N-{-4-[4-carbamoyl-5-(carbamoylamino)-2-thienyl]-2-methylbenzyl}-L-leucinate] | 1000 to 5000 nM | < 1000 nM
12 | CC(C)C[C@H](NC/C=C/c1ccc(-c2cc(C(N)=O)c(NC(N)=O)s2)c(F)c1)C(=O)OC1CCCC1 [Example 34, Cyclopentyl N-[(2E)-3-{4-[4-carbamoyl-5-(carbamoylamino)thiophen-2-yl]-3-fluorophenyl}prop-2-en-1-yl]-L-leucinate] | 1000 to 5000 nM | < 1000 nM
13 | CC(C)C[C@H](NCCCOc1ccc(-c2cc(C(N)=O)c(NC(N)=O)s2)c(Cl)c1)C(=O)O [Example 66, N-(3-{4-[4-Carbamoyl-5-(carbamoylamino)-2-thienyl]-3-chlorophenoxy}propyl)-L-leucine] |  | < 1000 nM
14 | NC(=O)Nc1sc(-c2ccc(CN[C@H](C(=O)O)c3ccc4ccccc4c3)cc2)cc1C(N)=O [Example 54, (2S)-({-4-[4-Carbamoyl-5-(carbamoylamino)-2-thienyl]benzyl}amino)(2-naphthyl)acetic acid] |  | < 1000 nM
15 | CC(C)C[C@H](NCCCCCOc1ccc(-c2cc(C(N)=O)c(NC(N)=O)s2)c(Cl)c1)C(=O)OC1CCCC1 [Example 28, Cyclopentyl N-(5-{4-[4-carbamoyl-5-(carbamoylamino)-2-thienyl]-3-chlorophenoxy}pentyl)-L-leucinate] | 1000 to 5000 nM | > 5000 nM
16 | CC(C)C[C@H](NCCCCCOc1ccc(-c2cc(C(N)=O)c(NC(N)=O)s2)c(Cl)c1)C(=O)O [Example 68, N-(5-{4-[4-Carbamoyl-5-(carbamoylamino)-2-thienyl]-3-chlorophenoxy}pentyl)-L-leucine] |  | < 1000 nM
17 | CC(C)C[C@H](NC/C=C/c1ccc(-c2cc(C(N)=O)c(NC(N)=O)s2)cc1C(F)(F)F)C(=O)O [Example 76, N-[(2E)-3-{4-(4-carbamoyl-5-(carbamoylamino)thiophen-2-yl]-2-(trifluoromethyl)phenyl}prop-2-en-1-yl]-L-leucine] |  | < 1000 nM
18 | NC(=O)Nc1sc(-c2ccc(/C=C/CN[C@H](C(=O)O)c3ccccc3)cc2)cc1C(N)=O [Example 81, (2S)-{[(2E)-3-{4-[4-carbamoyl-5-(carbamoylamino)-2-thienyl]phenyl}prop-2-en-1-yl]amino}(phenyl)acetic acid] |  | < 1000 nM
19 | NC(=O)Nc1sc(-c2ccc(CN[C@@H](Cc3ccccc3)C(=O)O)cc2)cc1C(N)=O [Example 52, N-{-4-[4-Carbamoyl-5-(carbamoylamino)-2-thienyl]benzyl}-L-phenylalanine] |  | < 1000 nM
20 | CC(C)(C)OC[C@H](NC/C=C/c1ccc(-c2cc(C(N)=O)c(NC(N)=O)s2)cc1)C(=O)O [Example 82, O-tert-butyl-N-[(2E)-3-{4-[4-carbamoyl-5-(carbamoylamino)thiophen-2-yl]phenyl}prop-2-en-1-yl]-L-serine] |  | < 1000 nM
21 | CC(C)C[C@H](NCCCCCOc1ccc(-c2cc(C(N)=O)c(NC(N)=O)s2)cc1)C(=O)O [Example 67] |  | < 1000 nM
22 | NC(=O)Nc1sc(-c2ccc(CN[C@H](C(=O)OC3CCCC3)c3ccc4ccccc4c3)cc2)cc1C(N)=O [Example 5, Cyclopentyl (2S)-({4-[4-carbamoyl-5-(carbamoylamino)-2-thienyl]benzyl}amino)(2-naphthyl)acetate] | > 5000 nM | > 5000 nM
23 | CC(C)C[C@H](NC/C=C/c1ccc(-c2cc(C(N)=O)c(NC(N)=O)s2)c(Cl)c1)C(=O)OC1CCCC1 [Example 35, Cyclopentyl N-[(2E)-3-{4-[4-carbamoyl-5-(carbamoylamino)thiophen-2-yl]-3-chlorophenyl}prop-2-en-1-yl]-L-leucinate] | 1000 to 5000 nM | 1000 to 5000 nM

From patent US8003695B2 (Chroma Therapeutics Ltd., priority 2006, dated 2011)
